Reference: patent US12054509B2, “Antimicrobial compounds, compositions, and uses thereof” (Lakewood Amedex, Inc., priority 2017, dated 2024)

How the values were obtained:
Assay type in all cases: cell-based
[1] = test system: E. coli (ATCC 25922); assay: Time kill assay in saline at pH 3.5 (Example 27); details: for Log10 CFU/mL: pH 3.5
Procedure: Log10 5 CFU of E. coli (ATCC 25922) were suspended in saline. Additionally, a sample of the saline only was prepared as a vehicle control (V.C.). Solutions of Nu-3, Nu-8, and Nu-10 at varying concentrations were adjusted to pH 3.5 with citric acid and added to the E. coli suspensions. At each time point (0, 1, 2.5, 5, 10, and 20 minutes), the treated bacterial suspensions were plated and incubated for 24 hrs, and each plate was read to determine the CFU count.
Tables 12-14 provide the time kill assay data for Nu-3 (Table 12), Nu-8 (Table 13) and Nu-10 (Table 14) against E. coli.

[2] = test system: P. aeruginosa; assay: MIC in lysogeny broth (LB) at pH 4; details: Pseudomonas aeruginosa
Procedure: (§1) The MICs are also determined using lysogeny broth (LB) at pH 4 as the growth medium. Under these conditions, Nu-8 is active against E. coli and P. aeruginosa with MICs of 54 and 27 mg/mL, respectively.

[3] = test system: E. coli; assay: MIC in lysogeny broth (LB) at pH 4; details: Escherichia coli
Procedure: as §1

[4] = test system: P. aeruginosa; assay: MIC broth microdilution (CLSI) at incremental pH, P. aeruginosa; details: Pseudomonas aeruginosa
Procedure: MIC testing is conducted using the broth (Mueller Hinton Broth) microdilution procedures relevant to each organism group as established by the Clinical and Laboratory Standards Institute (CLSI; 3-7). MIC plates are prepared in accordance with CLSI (3-7). To prepare the test plates, automated liquid handlers are used to conduct serial dilutions and liquid transfers. Automated liquid handlers utilized in this study include the Multidrop 384 (Labsystems, Helsinki, Finland) and the Biomek 2000 (Beckman Coulter, Fullerton CA). The solution is diluted to desired pH using 1 M Citric Acid or 1 M NaOH buffer. A standardized inoculum of each test organism is prepared per CLSI methods (3, 5-7) to equal a 0.5 McFarland standard in the appropriate media followed by an additional 1:20 dilution (1:10 for anaerobes).
The plates are then inoculated with 10 μL of the diluted 0.5 McFarland suspension using the Biomek 2000 from low to high drug concentration, resulting in a final concentration of approximately 5×10^5 CFU/mL per well. An un-inoculated plate is incubated for the purpose of assessing solubility of the drug in the test media. The plates are stacked 3 to 4 high, covered with a sterile lid on the top plate, and incubated for 18 to 24 hours according to CLSI. The MIC is recorded as the lowest concentration of respective compound that inhibited visible growth of the organism.

[5] = test system: wild type P. aeruginosa (PAO1; K2732); assay: Bacterial cytological profiling at pH 4, 5.5, 7 (Example 8), P. aeruginosa
Procedure: This bacterial cytological profiling (BCP) investigation uses methods and materials described previously by Nonejuie, P., Burkart, M., Poglianoa, K., Pogiano, J. (2013). Bacterial cytological profiling rapidly identifies the cellular pathways targeted by antibacterial molecules. Proc. Natl. Acad. Sci. U.S.A. 110(40):16169-16174. doi: 10.1073/pnas.1311066110.
For viable cell counts, cells are grown to OD600≈0.4 and diluted 1:1 into buffered or unbuffered media containing various compound concentrations. Samples are then collected and serially diluted (1:10) on a 96 well plate. Five microliters from each well are spotted on LB plates, incubated at 30° C., and viable cells are counted the next day.
Samples are collected at 10, 30, 120, and 240 min of exposure for viable cell count and imaging. For imaging, E. coli and S. aureus 200 μL of treated cells per time point are stained with 0.8 μg/mL FM4-64, 1.5 μg/mL DAPI, and 0.4 μM SYTOXGreen (Molecular Probes/Invitrogen). P. aeruginosa samples are stained 0.4 μM SYTOX Green, 28 μg/mL DAN, and 1 μg/mL FM 4-64. Cells are transferred to an agarose pad (20% LB, 1% agarose) for imaging.
For Nu-3 and Nu-8 stocks (at pH 4, 5.5 and 7), stock concentration is 500 mg/mL. For pH 4, the stocks are prepared by dissolving Nu-3 in 25 mM citrate buffer and Nu-8 in 350 mM citric acid. For pH 5.5, the stocks are prepared by dissolving Nu-3 in 25 mM citric-phosphate and Nu-8 in 25 mM critic. For pH 7, the stocks are prepared by dissolving Nu-3 and Nu-8 in 25 mM Sorensen phosphate buffer. 2×LB (lysogeny broth) solutions are prepared with 50 mM citrate buffer for pH 4, 50 mM citrate-phosphate buffer for pH 5.5, and 50 mM Sorensen phosphate buffer for pH 7.

With CCCCOP(=O)(O)OC[C@H]1O[C@@H](n2ccc(N)nc2=O)C[C@@H]1OP(=O)(O)OCCCC [Nu-8, sodium ((2R,3S,5R)-5-(4-amino-2-oxopyrimidin-1(2H)-yl)-3-((butoxyoxidophosphor-yl)oxy)tetrahydrofuran-2-yl)methyl butyl phosphate] the “Log10 CFU/mL” value ([1]; 2.5% solution, 0 min) was 5.20 Log10 CFU/mL, the “Log10 CFU/mL” value ([1]; 2.5% solution, 1 min) was 4.93 Log10 CFU/mL and the “Log10 CFU/mL” value ([1]; 2.5% solution, 2.5 min) was 4.90 Log10 CFU/mL. For the same compound, the “Log10 CFU/mL” value ([1]; 2.5% solution, 5 min) was 4.93 Log10 CFU/mL, the “Log10 CFU/mL” value ([1]; 2.5% solution, 10 min) was 4.90 Log10 CFU/mL and the “Log10 CFU/mL” value ([1]; 2.5% solution, 20 min) was 4.93 Log10 CFU/mL. For the same compound, the “Log10 CFU/mL” value ([1]; 5% solution, 0 min) was 5.20 Log10 CFU/mL, the “Log10 CFU/mL” value ([1]; 5% solution, 1 min) was 4.88 Log10 CFU/mL and the “Log10 CFU/mL” value ([1]; 5% solution, 2.5 min) was 4.92 Log10 CFU/mL. For the same compound, the “Log10 CFU/mL” value ([1]; 5% solution, 5 min) was 4.90 Log10 CFU/mL, the “Log10 CFU/mL” value ([1]; 5% solution, 10 min) was 4.95 Log10 CFU/mL and the “Log10 CFU/mL” value ([1]; 5% solution, 20 min) was 4.90 Log10 CFU/mL. The “Log10 CFU/mL” value ([1]; 10% solution, 0 min) was 5.20 Log10 CFU/mL, the “Log10 CFU/mL” value ([1]; 10% solution, 1 min) was 4.86 Log10 CFU/mL and the “Log10 CFU/mL” value ([1]; 10% solution, 2.5 min) was 4.79 Log10 CFU/mL. For the same compound, the “Log10 CFU/mL” value ([1]; 10% solution, 5 min) was 4.76 Log10 CFU/mL, the “Log10 CFU/mL” value ([1]; 10% solution, 10 min) was 4.71 Log10 CFU/mL and the “Log10 CFU/mL” value ([1]; 10% solution, 20 min) was 4.75 Log10 CFU/mL. The “kill of the bacteria” value ([1]; concentration of 10%, at 20 mins) was “modest kill”, the MIC [2] was 27 mg/mL and the MIC [3] was 54 mg/mL. The MIC ([4]; pH 1) was 9.38 mg/mL, the MIC ([4]; pH 3) was 18.8 mg/mL and the MIC ([4]; pH 4) was 37.5 mg/mL. For the same compound, the MIC ([4]; pH 5) was 75 mg/mL, the MIC ([4]; pH 7) was > 75 mg/mL and the cell growth ([5]; pH 5.5 and 7, 112.5 mg/mL) was “reduction in cell growth”. For the same compound, the “increase/change in cell permeability” value ([5]; pH 5.5 and 7, 112.5 mg/mL) was < 20% and the cell permeability ([5]; pH 7, 225 mg/mL, 10 min) was ~37%.
